Test results reported in US9662372B2 (priority 2013, dated 2017).
Values joined by “and” are separate entries in the source; they are usually repeats but may differ in a detail not shown here. Equal entries are not always repeated.

Columns and labels:
[1] = target: T1, Clostridium difficile Toxin B (Clostridioides difficile, UniProt P18177); experiment: Toxin B inactivation, CHO-k1 microwell dye reduction assay; format: cell-based; details: for Reduction of measured toxin B: at all tested concentrations, toxin B at high level
T1 construct: purchased List Biological Laboratory (Listlab, Campbell, Calif., USA)

[2] = target: Clostridium difficile Toxin B (Clostridium difficile) (UniProt P18177)
[3] = system: crude toxin preparation from E. coli O157; format: cell-based, Escherichia coli O157
[4] = system: crude toxin preparation from C. perfringens; format: cell-based
Shiga toxin 1 = Shiga toxin 1 (UniProt P08026+P69178)
Shiga toxin 2 = Shiga toxin 2 (Escherichia phage 933W, UniProt P09385+P09386)
[5] = system: crude toxin preparation from B. cerus; format: cell-based, Bacillus cereus
[6] = system: crude toxin preparation from C. sordellii; format: cell-based
C. difficile ATCC 9689 [7] = experiment: Bacterial mass in wells of PM panels (OD 750 nm); format: cell-based, Clostridium difficile; details: OD difference with vs without C. difficile, 72 h
C. difficile ATCC 9689 [8] = format: cell-based, Clostridium difficile
[9] = at the lowest concentration of 0.03 μM, toxin B 1.2-100 ng/ml
[10] = nitrogen source (PM03/06/07/08)

T1 sequence (P18177 whole entry): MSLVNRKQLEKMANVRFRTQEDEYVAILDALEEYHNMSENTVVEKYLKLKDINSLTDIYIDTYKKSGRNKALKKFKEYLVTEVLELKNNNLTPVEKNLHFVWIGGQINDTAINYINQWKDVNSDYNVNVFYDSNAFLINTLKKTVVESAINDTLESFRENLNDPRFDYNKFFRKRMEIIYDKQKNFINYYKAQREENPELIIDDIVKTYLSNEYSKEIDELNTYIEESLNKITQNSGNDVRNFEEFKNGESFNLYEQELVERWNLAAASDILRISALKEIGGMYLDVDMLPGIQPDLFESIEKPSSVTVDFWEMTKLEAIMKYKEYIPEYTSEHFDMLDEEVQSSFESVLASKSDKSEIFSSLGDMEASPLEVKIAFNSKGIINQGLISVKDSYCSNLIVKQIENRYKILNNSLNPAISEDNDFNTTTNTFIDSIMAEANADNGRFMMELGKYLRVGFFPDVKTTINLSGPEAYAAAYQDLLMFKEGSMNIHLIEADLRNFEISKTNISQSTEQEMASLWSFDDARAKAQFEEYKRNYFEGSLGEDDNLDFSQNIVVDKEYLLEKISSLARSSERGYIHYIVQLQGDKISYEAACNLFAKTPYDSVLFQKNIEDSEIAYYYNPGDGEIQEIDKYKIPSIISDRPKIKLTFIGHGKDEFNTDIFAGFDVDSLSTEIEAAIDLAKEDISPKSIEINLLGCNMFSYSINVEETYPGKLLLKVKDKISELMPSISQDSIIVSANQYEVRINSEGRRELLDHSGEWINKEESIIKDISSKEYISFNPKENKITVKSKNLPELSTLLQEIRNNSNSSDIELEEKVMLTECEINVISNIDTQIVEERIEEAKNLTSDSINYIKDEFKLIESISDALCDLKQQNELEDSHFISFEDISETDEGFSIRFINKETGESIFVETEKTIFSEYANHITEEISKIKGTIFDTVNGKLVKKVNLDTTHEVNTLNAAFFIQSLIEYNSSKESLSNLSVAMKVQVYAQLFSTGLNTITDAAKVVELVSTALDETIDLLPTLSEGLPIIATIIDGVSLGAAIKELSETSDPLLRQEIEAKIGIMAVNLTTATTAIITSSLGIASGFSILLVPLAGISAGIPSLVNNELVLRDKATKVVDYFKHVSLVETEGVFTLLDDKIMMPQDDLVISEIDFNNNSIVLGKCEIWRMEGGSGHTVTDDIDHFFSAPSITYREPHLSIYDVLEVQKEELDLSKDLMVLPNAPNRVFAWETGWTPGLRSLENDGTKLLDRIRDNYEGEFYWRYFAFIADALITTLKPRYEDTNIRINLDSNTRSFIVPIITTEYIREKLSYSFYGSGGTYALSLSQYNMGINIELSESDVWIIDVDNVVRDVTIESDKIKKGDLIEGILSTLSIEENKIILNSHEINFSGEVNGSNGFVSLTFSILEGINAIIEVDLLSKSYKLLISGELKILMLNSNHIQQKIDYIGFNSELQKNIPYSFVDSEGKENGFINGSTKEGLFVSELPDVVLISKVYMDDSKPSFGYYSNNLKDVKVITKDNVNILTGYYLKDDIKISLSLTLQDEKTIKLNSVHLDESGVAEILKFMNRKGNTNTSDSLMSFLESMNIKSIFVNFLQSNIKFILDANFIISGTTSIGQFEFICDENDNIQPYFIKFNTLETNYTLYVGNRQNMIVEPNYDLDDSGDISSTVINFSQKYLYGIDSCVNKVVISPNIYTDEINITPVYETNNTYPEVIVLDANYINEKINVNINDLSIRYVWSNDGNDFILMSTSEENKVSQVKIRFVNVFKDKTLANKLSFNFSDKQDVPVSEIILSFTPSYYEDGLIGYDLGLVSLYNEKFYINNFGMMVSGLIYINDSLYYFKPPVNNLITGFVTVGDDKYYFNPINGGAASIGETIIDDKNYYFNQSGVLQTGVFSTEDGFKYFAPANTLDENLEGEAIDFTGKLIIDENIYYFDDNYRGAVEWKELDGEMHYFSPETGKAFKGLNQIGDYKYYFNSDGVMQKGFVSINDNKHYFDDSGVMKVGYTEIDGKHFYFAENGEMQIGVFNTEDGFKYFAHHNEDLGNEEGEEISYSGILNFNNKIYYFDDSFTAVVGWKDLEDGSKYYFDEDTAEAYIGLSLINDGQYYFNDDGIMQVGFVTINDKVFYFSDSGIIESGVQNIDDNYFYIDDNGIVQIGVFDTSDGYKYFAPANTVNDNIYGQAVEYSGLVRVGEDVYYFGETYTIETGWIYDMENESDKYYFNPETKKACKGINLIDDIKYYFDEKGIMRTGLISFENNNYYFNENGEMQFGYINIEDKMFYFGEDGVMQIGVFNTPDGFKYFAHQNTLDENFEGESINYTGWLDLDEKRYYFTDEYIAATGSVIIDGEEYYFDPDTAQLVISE
Shiga toxin 2, sequence (P09385 23-319 limits assumed): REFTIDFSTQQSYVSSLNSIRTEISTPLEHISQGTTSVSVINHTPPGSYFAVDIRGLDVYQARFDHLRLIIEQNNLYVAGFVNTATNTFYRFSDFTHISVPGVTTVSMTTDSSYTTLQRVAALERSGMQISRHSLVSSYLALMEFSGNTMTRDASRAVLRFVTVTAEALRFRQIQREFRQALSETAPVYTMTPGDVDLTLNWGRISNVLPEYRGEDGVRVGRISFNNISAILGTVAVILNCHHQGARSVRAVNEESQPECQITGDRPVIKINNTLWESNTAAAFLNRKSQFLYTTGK
Shiga toxin 2, sequence (P09386 20-89 limits assumed): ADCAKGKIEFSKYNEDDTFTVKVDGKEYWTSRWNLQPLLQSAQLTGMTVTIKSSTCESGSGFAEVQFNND
Shiga toxin 1, sequence (P08026 23-315 limits assumed): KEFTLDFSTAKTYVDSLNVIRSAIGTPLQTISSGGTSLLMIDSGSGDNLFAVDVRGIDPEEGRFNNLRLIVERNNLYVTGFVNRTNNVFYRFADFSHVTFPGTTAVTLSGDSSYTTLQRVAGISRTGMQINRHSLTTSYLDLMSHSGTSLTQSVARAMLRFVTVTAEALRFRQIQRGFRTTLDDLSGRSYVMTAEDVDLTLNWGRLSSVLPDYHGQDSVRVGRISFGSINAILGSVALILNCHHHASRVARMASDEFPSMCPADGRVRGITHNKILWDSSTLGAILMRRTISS
Shiga toxin 1, sequence (P69178 21-89 limits assumed): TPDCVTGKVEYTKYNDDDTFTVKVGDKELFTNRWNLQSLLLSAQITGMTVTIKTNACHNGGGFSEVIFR

Molecule: polyarginine
- Reduction of measured toxin B [1]: dramatically reduce
- Toxin B inactivation [1, 9]: completely inactivated

Molecule: polylysine
- Concentration at which significant toxin inactivation begins ([1]; 50 ng/ml C. difficile Toxin B, dose response 0.042-42.5 ug/ml): approximately 1 ug/ml

Molecule: poly-L-lysine
- Toxin B inactivation ([1]; 50 ng/ml C. difficile Toxin B): effectively inactivates

Molecule: poly-L-lysine (peptide)
- concentration at which significant toxin inactivation begins [2]: 1 µg/mL

Molecule: protamine
- Toxin inactivation [3]: did not inactivate
- Toxin inactivation [4]: did not inactivate
- Toxin inactivation (Shiga toxin 1): did not inactivate
- Toxin inactivation (Shiga toxin 2): did not inactivate
- Reduction of measured toxin B [1]: dramatically reduce
- Toxin B inactivation [1, 9]: completely inactivated
- Optimal concentration against toxin B ([1]; double dilution experiment, FIG. 4): 0.26 µM
- Toxin inactivation [5]: did not inactivate
- Toxin inactivation [6]: did not inactivate

Molecule: poly-D-lysine (peptide)
- concentration at which significant toxin inactivation begins [2]: 1 µg/mL

Molecule: Arg-Ser
- C. difficile Mass (C. difficile ATCC 9689 [7]; [10]): 0.0448 OD (750 nm)
- Toxin (C. difficile ATCC 9689 [8]): 7608 ng/mL

Molecule: Gly-Glu
- C. difficile Mass (C. difficile ATCC 9689 [7]; carbon source (PM01/PM02)): 0.0411 OD (750 nm)
- C. difficile Mass (C. difficile ATCC 9689 [7]; [10]): 0.0472 OD (750 nm)
- Toxin (C. difficile ATCC 9689 [8]): 366 ng/mL and 184 ng/mL

Molecule: Ile-Arg
- C. difficile Mass (C. difficile ATCC 9689 [7]; [10]): 0.0442 OD (750 nm)
- Toxin (C. difficile ATCC 9689 [8]): 122 ng/mL

Molecule: poly-D-lysine
- Toxin B inactivation ([1]; 50 ng/ml C. difficile Toxin B): effectively inactivates

Molecule: Arg-Ala
- C. difficile Mass (C. difficile ATCC 9689 [7]; [10]): 0.0456 OD (750 nm)
- Toxin (C. difficile ATCC 9689 [8]): 10080 ng/mL

Molecule: NO [Hydroxylamine]
- C. difficile Mass (C. difficile ATCC 9689 [7]; [10]): 0.0228 OD (750 nm)
- Toxin (C. difficile ATCC 9689 [8]): 334 ng/mL

Molecule: CS(=O)(=O)CC[C@H](N)C(=O)O [L-Methionine Sulfone]
- C. difficile Mass (C. difficile ATCC 9689 [7]; phosphorus/sulfur source panel PM04): 0.0446 OD (750 nm)
- Toxin (C. difficile ATCC 9689 [8]): <0.122 ng/mL

Molecule: Thr-Pro
- C. difficile Mass (C. difficile ATCC 9689 [7]; [10]): 0.0355 OD (750 nm)
- Toxin (C. difficile ATCC 9689 [8]): 4772 ng/mL

Molecule: Gly-Gly-Ile
- C. difficile Mass (C. difficile ATCC 9689 [7]; [10]): 0.0421 OD (750 nm)
- Toxin (C. difficile ATCC 9689 [8]): <0.122 ng/mL

Molecule: Gly-D-Ser
- C. difficile Mass (C. difficile ATCC 9689 [7]; [10]): 0.0543 OD (750 nm)
- Toxin (C. difficile ATCC 9689 [8]): 297 ng/mL
